# The supplement of paper PMC5303821, “Major sulfonate transporter Soa1 in Saccharomyces cerevisiae and considerable substrate diversity in its fungal family” (Nature Communications, 2017)
# What was measured:
# Settings in all cases: sulfur source concentration 200 µM; S. cerevisiae S288C/BY sul1Δ sul2Δ soa1Δ with transporter ortholog inserted at SOA1 locus; sulfur-free B medium, 4% glucose, pH 6.5, sole sulfur source
# [1] = test system: Metarhizium robertsii_XP_007823832; test: maximal growth rate with compound as sole sulfur source (OD600 per h); higher = better growth / uptake of the sulfur source
# Protocol: (§1)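 S. cerevisiae sul1Δ sul2Δ soa1Δ strains expressing 20 fungal SOA1 orthologs (or no transporter, 'soa1 del') were grown in liquid sulfur-free B medium, 4% glucose, pH 6.5 (7 mM K2HPO4). The strains were sulfur-starved for 3 days beforehand. Each sulfur compound was the sole sulfur source at 200 µM (sulfate also at 40 mM). OD600 curves of duplicate cultures were averaged and fitted (logistic / Richards, GroFit) to give maximal growth rate, maximal density and lag phase; temperature not stated.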
# [2] = test system: Aspergillus nidulans_CBF80346; test: as above
# Protocol: as §1
# soa1 del [3] = test: as above
# Protocol: as §1
# [4] = test system: Aspergillus nidulans_XP_661733; test: as above
# Protocol: as §1
# [5] = test system: Aspergillus nidulans (IAM 2006)_astA; test: as above
# Protocol: as §1
# [6] = test system: Aspergillus nidulans_XP_681611; test: as above
# Protocol: as §1
# [7] = test system: Saccharomyces uvarum_SOA2; test: as above
# Protocol: as §1
# [8] = test system: Ogataea parapolymorpha_XP_013935289; test: as above
# Protocol: as §1
# [9] = test system: Ogataea parapolymorpha_XP_013932458; test: as above
# Protocol: as §1
# [10] = test system: Ogataea parapolymorpha_XP_013936897; test: as above
# Protocol: as §1
# [11] = test system: Saccharomyces eubayanus_SOA1; test: maximal culture density with compound as sole sulfur source (OD600); higher = better growth
# Protocol: as §1
# [12] = test system: Saccharomyces uvarum_SOA1; test: as above
# Protocol: as §1
# [13] = test system: Metarhizium robertsii_XP_007823832; test: as above
# Protocol: as §1
# [14] = test system: Aspergillus nidulans_CBF80346; test: as above
# Protocol: as §1
# [15] = test system: Aspergillus nidulans_CBF74694; test: as above
# Protocol: as §1
# soa1 del [16] = test: as above
# Protocol: as §1
# [17] = test system: Aspergillus nidulans_XP_661733; test: as above
# Protocol: as §1
# [18] = test system: Aspergillus nidulans (IAM 2006)_astA; test: as above
# Protocol: as §1
# [19] = test system: Aspergillus nidulans_XP_660670; test: as above
# Protocol: as §1
# [20] = test system: Aspergillus nidulans_XP_660563; test: as above
# Protocol: as §1
# [21] = test system: Fusarium oxysporum_ENH65823; test: as above
# Protocol: as §1
# [22] = test system: Aspergillus nidulans_XP_681611; test: as above
# Protocol: as §1
# [23] = test system: Saccharomyces uvarum_SOA2; test: as above
# Protocol: as §1
# [24] = test system: Saccharomyces eubayanus_SOA2; test: as above
# Protocol: as §1
# [25] = test system: Aspergillus nidulans_XP_661711; test: as above
# Protocol: as §1
# [26] = test system: Metarhizium robertsii_XP_007822519; test: as above
# Protocol: as §1
# [27] = test system: Ogataea parapolymorpha_XP_013935289; test: as above
# Protocol: as §1
# [28] = test system: Ogataea parapolymorpha_XP_013932458; test: as above
# Protocol: as §1
# [29] = test system: Ogataea parapolymorpha_XP_013936897; test: as above
# Protocol: as §1
# [30] = test system: Saccharomyces cerevisiae_SOA1; test: as above
# Protocol: as §1
# [31] = test system: Metarhizium robertsii_XP_007821441; test: as above
# Protocol: as §1
# [32] = test system: Saccharomyces uvarum_SOA1; test: lag phase before growth; higher = slower start of growth
# Protocol: as §1
# [33] = test system: Metarhizium robertsii_XP_007822519; test: as above
# Protocol: as §1
# [34] = test system: Ogataea parapolymorpha_XP_013935289; test: as above
# Protocol: as §1
# [35] = test system: Saccharomyces cerevisiae_SOA1; test: as above
# Protocol: as §1
smiles,measurement,setting,value
N[C@@H](CS(=O)(=O)O)C(=O)O [L-cysteic acid],maximal growth rate,[1],0.028
same,maximal growth rate,[2],0.00644
same,maximal growth rate,soa1 del [3],0.00337
same,maximal growth rate,[4],0.0304
same,maximal growth rate,[5],0.0282
same,maximal growth rate,[6],0.00678
same,maximal growth rate,[7],0.00261
same,maximal growth rate,[8],0.035
same,maximal growth rate,[9],0.00397
same,maximal growth rate,[10],0.00557
same,maximal culture density,[11],0.561
same,maximal culture density,[12],1.25
same,maximal culture density,[13],1.43
same,maximal culture density,[14],0.823
same,maximal culture density,[15],0.451
same,maximal culture density,soa1 del [16],0.254
same,maximal culture density,[17],1.3
same,maximal culture density,[18],1.41
same,maximal culture density,[19],1.13
same,maximal culture density,[20],0.535
same,maximal culture density,[21],1.16
same,maximal culture density,[22],0.861
same,maximal culture density,[23],0.234
same,maximal culture density,[24],0.254
same,maximal culture density,[25],1.16
same,maximal culture density,[26],1.38
same,maximal culture density,[27],1.51
same,maximal culture density,[28],0.331
same,maximal culture density,[29],0.391
same,maximal culture density,[30],1.46
same,maximal culture density,[31],0.3
same,lag phase before growth,[32],6.98 h
same,lag phase before growth,[33],17.9 h
same,lag phase before growth,[34],10.9 h
same,lag phase before growth,[35],12.6 h
